Among the test systems are HOP-92 NSCLC; TK-10 renal; NCI-H226 lung; COLO 205 colon; SF-295 CNS; SR leukemia; SW-620 colon; HCT-116 colon; UO-31 renal; CAKI-1 renal.
Holding throughout (assay): inhibition of tumour cell growth, NCI panel, 48 h

Several values for one entry are separate records, joined by “and”; a condition that tells them apart may be missing. Identical values can stand only once.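 Method: 48-hour compound exposure of cells in 96-well plates, five concentrations, linear interpolation of endpoints. GI50: concentration for 50% inhibition of growth. TGI: concentration producing complete growth inhibition.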

Turning to `COc1ccc(/C=C/C(=O)C(CC2CCC2)C(=O)/C=C/c2ccc(OC)c(OC)c2)cc1OC`, the GI50 is 2.64 µM in the assay with HOP-92 NSCLC; 2.59 µM in the assay on TK-10 renal; 2.68 µM with NCI-H226 lung; 2.41 µM in the assay on COLO 205 colon; 2.5 µM with SF-295 CNS; 1.04 µM in the assay on SR leukemia. In addition, the GI50 was 1.55 µM in the assay with SW-620 colon, 0.965 µM in the assay with HCT-116 colon and 1.56 µM in the assay with UO-31 renal. Further, the TGI in the assay on HOP-92 NSCLC is 7.9 µM; with TK-10 renal it was 4.88 µM; in the assay with NCI-H226 lung it was 6.74 µM; in the assay with COLO 205 colon, 5 µM; in the assay on SF-295 CNS, 7.22 µM; in the assay with SR leukemia it was > 100 µM. The TGI in the assay on SW-620 colon was 3.57 µM; in the assay on HCT-116 colon, 2.42 µM; with UO-31 renal, 2.9 µM.

Consider `COc1cc(/C=C/c2cc(/C=C/c3ccc(O)c(OC)c3)n(C(=O)Nc3ccc(C)cc3C)n2)ccc1O`, for which the GI50 in the assay with HOP-92 NSCLC is 0.576 µM; with TK-10 renal, 0.529 µM; in the assay with NCI-H226 lung, 0.389 µM; in the assay with COLO 205 colon, 1.9 µM; in the assay on CAKI-1 renal, 0.367 µM; in the assay with SR leukemia it was 0.0445 µM. Further, the GI50 in the assay on UO-31 renal is 0.362 µM. For the same molecule, the TGI with HOP-92 NSCLC was 3.71 µM; with TK-10 renal it was 2.16 µM; with NCI-H226 lung, 2.1 µM; in the assay with COLO 205 colon, 3.38 µM; in the assay on CAKI-1 renal, 5.09 µM; in the assay on UO-31 renal, 1.74 µM.

As to `Nc1ccc2cc3ccc(N)cc3nc2c1`, the TGI was 6.14 µM and 6.32 µM and 7.11 µM with HOP-92 NSCLC; 4.3 µM [middle of 4 runs] in the assay with NCI-H226 lung; 7.12 µM [middle of 4 runs] with SF-295 CNS; 14.1 µM and 2.1 µM and 6.96 µM in the assay on SR leukemia; 10.8 µM [middle of 4 runs] in the assay on HCT-116 colon; 5.13 µM [middle of 4 runs] in the assay on UO-31 renal. Further, the GI50 in the assay on TK-10 renal is 0.513 µM; in the assay on COLO 205 colon, 0.936 µM; in the assay on CAKI-1 renal it was 0.723 µM; in the assay on SF-295 CNS it was 1.47 µM; in the assay on UO-31 renal, 0.412 µM.

In the case of `Cc1ccc(-c2nc3ccc(Cl)cc3c(=O)n2N2C(=O)CSC2c2ccccc2Cl)cc1` (stereo not given), the GI50 in the assay with HOP-92 NSCLC was 6.74 µM; with NCI-H226 lung, 5.14 µM; in the assay with COLO 205 colon, 9 µM; in the assay with CAKI-1 renal, 4.82 µM; with SF-295 CNS, 4.73 µM; in the assay with SR leukemia it was > 100 µM. For the same molecule, the GI50 is > 100 µM with SW-620 colon, 5.51 µM in the assay on HCT-116 colon and 3.66 µM in the assay with UO-31 renal. Moreover, the TGI with HOP-92 NSCLC, in the assay with NCI-H226 lung, in the assay on COLO 205 colon, in the assay with CAKI-1 renal, in the assay with SF-295 CNS and with SR leukemia was > 100 µM each time. Besides, the TGI in the assay with SW-620 colon, in the assay on HCT-116 colon and in the assay on UO-31 renal was > 100 µM in each case.

Regarding `N#CC1CC2(C1)OCCS2` (stereo not given), the TGI in the assay on TK-10 renal, with NCI-H226 lung, with COLO 205 colon, with CAKI-1 renal, in the assay on SF-295 CNS and in the assay with SR leukemia was > 100 µM each time. In addition, the TGI in the assay with SW-620 colon, with HCT-116 colon and in the assay with UO-31 renal was > 100 µM throughout.

`O=C(NCO)NCOCn1c(=O)n(CO)c(=O)n(CO)c1=O`: the TGI in the assay on TK-10 renal is > 100 µM; with NCI-H226 lung, > 100 µM; in the assay on COLO 205 colon, > 71.8 µM; in the assay with CAKI-1 renal, > 100 µM; in the assay on SF-295 CNS, > 100 µM; with SR leukemia, 81.9 µM. Also, the TGI in the assay on SW-620 colon is 56.4 µM; in the assay with HCT-116 colon, 96.2 µM; with UO-31 renal, > 100 µM.

Consider `O=C1NC2OC(C(O)CO)C(O)C2O1` (stereo not given), for which the TGI in the assay on HOP-92 NSCLC, in the assay on TK-10 renal, in the assay on COLO 205 colon, in the assay on CAKI-1 renal, with SF-295 CNS and with SR leukemia was > 100 µM in each case. The TGI with SW-620 colon, in the assay with HCT-116 colon and with UO-31 renal was > 100 µM in each case.

In the case of `C=CC/C=C/C/C=C/CCCCCCCc1cccc(O)c1C(=O)O`, the TGI was 75 µM in the assay on HOP-92 NSCLC; > 100 µM in the assay with TK-10 renal; > 100 µM with COLO 205 colon; > 100 µM in the assay on CAKI-1 renal; > 100 µM in the assay with SF-295 CNS; > 100 µM in the assay on SR leukemia. Besides, the TGI in the assay on SW-620 colon is > 100 µM; with HCT-116 colon it was > 100 µM; in the assay on UO-31 renal, 79.1 µM.

On to `COc1cc(NC(C)CCCN)c2nccc(C)c2c1` (stereo not given), for which the TGI with HOP-92 NSCLC was > 100 µM; with TK-10 renal, 63.5 µM; with COLO 205 colon, 28.4 µM; in the assay on CAKI-1 renal, 56 µM; in the assay with SF-295 CNS, 35.4 µM; in the assay on SR leukemia, 53.1 µM. For the same molecule, the figures for the TGI in the assay on HCT-116 colon and with UO-31 renal were 29.3 µM and 53.8 µM, respectively.

With `COc1ccc(C(=O)COc2ccc(/C=C3\COc4ccc(OC)cc4C3=O)cc2)cc1`, the GI50 in the assay on TK-10 renal is 19.1 µM; in the assay on NCI-H226 lung it was 54.7 µM; with COLO 205 colon, 51.8 µM; with CAKI-1 renal, 32.4 µM; in the assay with SF-295 CNS, 14.5 µM; in the assay on SR leukemia it was 2.09 µM. The results for the GI50 in the assay with SW-620 colon, in the assay with HCT-116 colon and in the assay with UO-31 renal were 4.99 µM, 11.1 µM and 18.4 µM, respectively. Moreover, the TGI in the assay with TK-10 renal was 48.7 µM; with NCI-H226 lung, > 100 µM; in the assay on COLO 205 colon, > 100 µM; in the assay on CAKI-1 renal, > 100 µM; in the assay with SF-295 CNS, 38.1 µM; with SR leukemia, 5.91 µM. Besides, the TGI in the assay on SW-620 colon was > 100 µM; in the assay with HCT-116 colon, 31.1 µM; in the assay with UO-31 renal, 61.5 µM.

Turning to `CC(C)(C)c1cc(C(O)(C(F)(F)F)C(F)(F)F)c2c(c1)C(C(F)(F)F)(C(F)(F)F)OC(C(C)(C)C)N2` (stereo not given), the TGI in the assay with TK-10 renal was 11.9 µM; in the assay on NCI-H226 lung, 10.2 µM; in the assay with COLO 205 colon, 13.5 µM; in the assay on CAKI-1 renal, 8.45 µM; in the assay on SF-295 CNS, 8.04 µM; in the assay with SR leukemia, 7.2 µM. The TGI worked out at 13.8 µM with SW-620 colon, 12.8 µM in the assay with HCT-116 colon and 19.3 µM in the assay on UO-31 renal.

`CCOC(=O)NC(=O)c1cn(CCCOC(=O)CCCCCCCCCCC(=O)OCCCn2cc(C(=O)NC(=O)OCC)c(=O)[nH]c2=O)c(=O)[nH]c1=O`: the TGI with HOP-92 NSCLC, in the assay on TK-10 renal, in the assay on NCI-H226 lung, in the assay on COLO 205 colon, in the assay on SF-295 CNS and with SR leukemia was > 100 µM in each case. Besides, the TGI with SW-620 colon, in the assay on HCT-116 colon and in the assay with UO-31 renal was > 100 µM throughout.

Values taken from PubChem BioAssay (NCI).
